Results: patent US10245264B2, “Substituted imidazo[1,2-a]pyrazines as soluble guanylate cyclase activators” (Merck Sharp & Dohme Corp., priority 2015, dated 2019)

Columns and labels:
[1] = target: T1, sGC α1/β1 heterodimer stably expressed in CHO-K1 cells (CHO-K1/sGC) (Homo sapiens, UniProt Q02108+Q02153); test: Cell-based sGC functional assay (CASA assay), cGMP generation by HTRF; conditions: for Emax: CHO-K1, maximum cGMP production of Compound A set to 100% activation, read-out: % Act. (percent activation relative to Compound A); for EC50: CHO-K1/sGC cells, 1 hr at 37° C., 4P fit, presence or absence of DETA-NO not given, read-out: IP (nM) (inflection point)
T1 construct: expressed in transfected cells
T1 sequence (Q02108 1-690): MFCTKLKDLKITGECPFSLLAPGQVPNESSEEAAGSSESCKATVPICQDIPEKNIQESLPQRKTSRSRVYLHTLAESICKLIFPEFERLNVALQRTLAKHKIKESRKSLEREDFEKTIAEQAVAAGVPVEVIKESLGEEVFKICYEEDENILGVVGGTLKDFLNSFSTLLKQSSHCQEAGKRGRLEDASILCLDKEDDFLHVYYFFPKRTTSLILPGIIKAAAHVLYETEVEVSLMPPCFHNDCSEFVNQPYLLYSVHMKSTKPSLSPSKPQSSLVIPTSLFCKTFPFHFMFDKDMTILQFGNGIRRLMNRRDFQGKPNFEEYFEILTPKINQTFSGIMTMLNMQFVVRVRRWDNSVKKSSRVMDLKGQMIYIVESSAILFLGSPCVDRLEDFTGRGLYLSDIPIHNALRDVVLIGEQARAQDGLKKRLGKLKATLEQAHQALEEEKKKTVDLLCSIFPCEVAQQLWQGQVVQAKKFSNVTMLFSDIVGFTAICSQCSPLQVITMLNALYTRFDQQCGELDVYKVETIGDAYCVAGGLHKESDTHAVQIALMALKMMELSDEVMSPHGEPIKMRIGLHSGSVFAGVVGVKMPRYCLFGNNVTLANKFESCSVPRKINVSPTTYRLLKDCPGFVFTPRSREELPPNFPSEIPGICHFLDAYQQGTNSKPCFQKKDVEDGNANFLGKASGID
T1 sequence (Q02153 1-619): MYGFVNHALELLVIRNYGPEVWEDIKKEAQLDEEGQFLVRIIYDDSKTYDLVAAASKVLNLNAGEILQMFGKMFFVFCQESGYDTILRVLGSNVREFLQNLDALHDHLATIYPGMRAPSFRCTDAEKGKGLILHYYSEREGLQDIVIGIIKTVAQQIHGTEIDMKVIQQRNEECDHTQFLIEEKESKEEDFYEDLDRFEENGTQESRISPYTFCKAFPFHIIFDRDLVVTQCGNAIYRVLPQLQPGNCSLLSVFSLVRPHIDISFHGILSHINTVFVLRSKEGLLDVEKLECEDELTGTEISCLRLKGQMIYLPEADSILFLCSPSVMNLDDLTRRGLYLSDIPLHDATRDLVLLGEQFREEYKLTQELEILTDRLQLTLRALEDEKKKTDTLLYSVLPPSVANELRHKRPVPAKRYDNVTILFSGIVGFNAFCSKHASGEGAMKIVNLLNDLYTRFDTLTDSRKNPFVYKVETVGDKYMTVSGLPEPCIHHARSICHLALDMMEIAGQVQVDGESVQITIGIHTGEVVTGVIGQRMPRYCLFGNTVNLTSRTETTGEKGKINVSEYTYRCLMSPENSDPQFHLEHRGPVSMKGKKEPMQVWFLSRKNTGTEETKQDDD
In short: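 CHO-K1/sGC cells (4×10^5/mL) in EBSS with 5 mM MgCl2, 10 mM HEPES, 0.05% BSA and 0.5 mM IBMX, treated 1 hr at 37° C with compounds (2.5% DMSO) with or without 1 μM DETA-NO. cGMP measured by HTRF, expressed as % of a reference heme-dependent activator's maximum; inflection point and fold induction from 4P fit.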

[2] = tested on: systolic blood pressure in spontaneously hypertensive rats; test: Acute efficacy in spontaneously hypertensive rats (SHR), telemetry blood pressure; format: in vivo, rat
Description: Acute Efficacy in Spontaneously Hypertensive Rats (SHR)
Spontaneously hypertensive rats (SHR, male, Charles River) were implanted with DSI TA11 PA-C40 telemetry device (Data Sciences, Inc., St. Paul, Minn.) under isoflurane or ketamine/metomidine anesthesia. The telemetry unit catheter was inserted into the descending aorta via the femoral artery and the telemetry device was implanted subcutaneously in the left flank area. Animals were allowed to recover from surgery for 14 days before the start of any studies. Blood pressure, heart rate, and activity signals from conscious, freely moving rats were recorded continuously for 30 seconds every 10 minutes. On the day prior to administration of compound, a single oral dose of vehicle (10% transcutol/20% Cremophor/70% water) was administered to all animals to establish baseline control data. The blood pressure lowering efficacy of compound (PO) or vehicle was evaluated following a single oral gavage. Data were collected as hourly averages, and changes in blood pressure were calculated by subtracting control baseline data on an hourly basis. Animals were maintained on normal diet with a 12 hour light-dark cycle.
Maximum peak decreases of systolic blood pressure (SBP) in SHR at a particular P.O. dose (mpk milligrams per kilogram) for the following representative compounds are provided below in Table 6.
Category A=SBP in SHRs <20 mmHg; Category B=SBP in SHRs 20-40 mmHg;
Category C=SBP in SHRs >40 mmHg

CC1(c2ccc(Cl)cc2)C(=O)Nc2nc(-c3cn4ccnc4c(OCCC4CC4)n3)nc(N)c21 (stereo not drawn) [Example 50A, 4-amino-5-(4-chlorophenyl)-2-[8-(2-cyclo-propylethoxy)imidazo[1,2-a]pyrazin-6-yl]-5-methyl-5,7-dihydro-6H-pyrrolo[2,3-d] pyrimidin-6-one]
Emax [1]: 106%
EC50 [1]: 12 nM
Maximum peak decrease of systolic blood pressure (SBP), Category ([2]; single oral dose 0.3 mpk P.O.): B (Category B=SBP in SHRs 20-40 mmHg)

CCCSc1nc(-c2nc(N)c3c(n2)NC(=O)C3(C)c2ccc(F)cc2)cn2ccnc12 (stereo not drawn) [Example 62A, 4-amino-5-(4-fluorophenyl)-5-methyl-2-[8-(propylsulfanyl)imidazo[1,2-a]pyrazin-6-yl]-5,7-dihydro-6H-pyrrolo [2,3-d]pyrimidin-6-one]
Emax [1]: 99%
EC50 [1]: 142 nM
Maximum peak decrease of systolic blood pressure (SBP), Category ([2]; single oral dose 1.0 mpk P.O.): B (Category B=SBP in SHRs 20-40 mmHg)

CC1(c2ccc(Cl)cc2)C(=O)Nc2nc(-c3cn4ccnc4c(Oc4cccnc4)n3)nc(N)c21 (stereo not drawn) [Example 30A, 4-amino-5-(4-chlorophenyl)-5-methyl-2-[8-(pyridin-3-yloxy)imidazo[1,2-a]pyrazin-6-yl]-5,7-dihydro-6H-pyrrolo[2,3-d] pyrimidin-6-one]
Emax [1]: 168%
EC50 [1]: 171 nM
Maximum peak decrease of systolic blood pressure (SBP), Category ([2]; single oral dose 1.0 mpk P.O.): B (Category B=SBP in SHRs 20-40 mmHg)

CC1(c2ccc(Cl)cc2)C(=O)Nc2nc(-c3cn4ccnc4c(NCC(F)(F)C(F)(F)F)n3)nc(N)c21 (stereo not drawn) [Example 61A, 4-amino-5-(4-chlorophenyl)-5-methyl-2-{8-[(2,2,3,3,3-pentafluoro-propyl)amino]imidazo[1,2-a]pyrazin-6-yl}-5,7-dihydro-6H-pyrrolo [2,3-d]pyrimidin-6-one]
Emax [1]: 116%
EC50 [1]: 165 nM
Maximum peak decrease of systolic blood pressure (SBP), Category ([2]; single oral dose 3.0 mpk P.O.): B (Category B=SBP in SHRs 20-40 mmHg)

CC1(c2ccc(F)cc2)C(=O)Nc2nc(-c3cn4ccnc4c(Oc4ccccc4F)n3)nc(N)c21 (stereo not drawn) [Example 4A, 4-amino-2-[8-(2-fluorophenoxy)imidazo[1,2-a]pyrazin-6-yl]-5-(4-fluorophenyl)-5-methyl-5,7-dihydro-6H-pyrrolo[2,3-d] pyrimidin-6-one]
Emax [1]: 100%
EC50 [1]: 62 nM
Maximum peak decrease of systolic blood pressure (SBP), Category ([2]; single oral dose 1.0 mpk P.O.): C (Category C=SBP in SHRs >40 mmHg)

CCCOc1nc(-c2nc(N)c3c(n2)NC(=O)C3(C)c2ccc(F)cc2)cn2ccnc12 (stereo not drawn) [Example 39A, 4-Amino-5-(4-fluorophenyl)-5-methyl-2-(8-propoxyimidazo[1,2-a]pyrazin-6-yl)-5,7-dihydro-6H-pyrrolo[2,3-d]pyrimidin-6-one]
Emax [1]: 109%
EC50 [1]: 148 nM
Maximum peak decrease of systolic blood pressure (SBP), Category ([2]; single oral dose 1.0 mpk P.O.): C (Category C=SBP in SHRs >40 mmHg)

CCCOc1nc(-c2nc(N)c3c(n2)NC(=O)C3(C)c2ccc(Cl)cc2)cn2ccnc12 (stereo not drawn) [Example 49A, 4-amino-5-(4-chlorophenyl)-5-methyl-2-(8-propoxyimidazo [1,2-a]pyrazin-6-yl)-5,7-dihydro-6H-pyrrolo[2,3-d] pyrimidin-6-one]
Emax [1]: 117%
EC50 [1]: 30 nM
Maximum peak decrease of systolic blood pressure (SBP), Category ([2]; single oral dose 0.3 mpk P.O.): B (Category B=SBP in SHRs 20-40 mmHg)

COCCNc1nc(-c2nc(N)c3c(n2)NC(=O)C3(C)c2ccc(Cl)cc2)cn2ccnc12 (stereo not drawn) [Example 40A, 4-Amino-5-(4-chlorophenyl)-2-{8-[(2-methoxyethyl)amino]imidazo[1,2-a]pyrazin-6-yl}-5-methyl-5,7-dihydro-6H-pyrrolo[2,3-d]pyrimidin-6-one]
Emax [1]: 117%
EC50 [1]: 85 nM
Maximum peak decrease of systolic blood pressure (SBP), Category ([2]; single oral dose 1.0 mpk P.O.): B (Category B=SBP in SHRs 20-40 mmHg)

CC(C)COc1nc(-c2nc(N)c3c(n2)NC(=O)C3(C)c2ccc(F)cc2)cn2ccnc12 (stereo not drawn) [Example 51A, 4-amino-5-(4-fluorophenyl)-5-methyl-2-[8-(2-methyl-propoxy)imidazo [1,2-a]pyrazin-6-yl]-5,7-dihydro-6H-pyrrolo[2,3-d] pyrimidin-6-one]
Emax [1]: 127%
EC50 [1]: 27 nM
Maximum peak decrease of systolic blood pressure (SBP), Category ([2]; single oral dose 0.3 mpk P.O.): B (Category B=SBP in SHRs 20-40 mmHg)

CC1(c2ccc(F)cc2)C(=O)Nc2nc(-c3cn4ccnc4c(Oc4cccc(F)c4)n3)nc(N)c21 (stereo not drawn) [Example 1A, 4-Amino-2-[8-(3-fluorophenoxy)imidazo[1,2-a]pyrazin-6-yl]-5-(4-fluorophenyl)-5-methyl-5,7-dihydro-6H-pyrrolo[2,3-d]pyrimidin-6-one]
Emax [1]: 110%
EC50 [1]: 17 nM
Maximum peak decrease of systolic blood pressure (SBP), Category ([2]; single oral dose 0.3 mpk P.O.): B (Category B=SBP in SHRs 20-40 mmHg)

CC1(c2ccc(F)cc2)C(=O)Nc2nc(-c3cn4ccnc4c(OCC(F)(F)C(F)(F)F)n3)nc(N)c21 (stereo not drawn) [Example 2A, 4-amino-5-(4-fluorophenyl)-5-methyl-2-[8-(2,2,3,3,3-pentafluoropropoxy)imidazo[1,2-a]pyrazin-6-yl]-5,7-dihydro-6H-pyrrolo[2,3-d]pyrimidin-6-one]
Emax [1]: 127%
EC50 [1]: 317 nM
Maximum peak decrease of systolic blood pressure (SBP), Category ([2]; single oral dose 3.0 mpk P.O.): B (Category B=SBP in SHRs 20-40 mmHg)

CC1(c2ccccc2)C(=O)Nc2nc(-c3cn4ccnc4c(Oc4ccccc4)n3)nc(N)c21 (stereo not drawn) [Example 10B, 4-amino-5-methyl-2-(8-phenoxy-imidazo[1,2-a]pyrazin-6-yl)-5-phenyl-5,7-dihydro-6H-pyrrolo[2,3-d] pyrimidin-6-one]
Emax [1]: 127%
EC50 [1]: 45 nM
Maximum peak decrease of systolic blood pressure (SBP), Category ([2]; single oral dose 0.3 mpk P.O.): B (Category B=SBP in SHRs 20-40 mmHg)

CC1(c2ccc(Cl)cc2)C(=O)Nc2nc(-c3cn4ccnc4c(OCC4CC(F)(F)C4)n3)nc(N)c21 (stereo not drawn) [Example 32A, 4-amino-5-(4-chlorophenyl)-2-{8-[(3,3-difluoro-cyclobutyl)methoxy]imidazo [1,2-a]pyrazin-6-yl}-5-methyl-5,7-dihydro-6H-pyrrolo[2,3-d] pyrimidin-6-one]
Emax [1]: 129%
EC50 [1]: 157 nM
Maximum peak decrease of systolic blood pressure (SBP), Category ([2]; single oral dose 1.0 mpk P.O.): B (Category B=SBP in SHRs 20-40 mmHg)

CC1(c2ccc(Cl)cc2)C(=O)Nc2nc(-c3cn4ccnc4c(OCC(F)(F)C(F)(F)F)n3)nc(N)c21 (stereo not drawn) [Example 47A, 4-amino-5-(4-chlorophenyl)-5-methyl-2-[8-(2,2,3,3,3-pentafluoro-propoxy)imidazo [1,2-a]pyrazin-6-yl]-5,7-dihydro-6H-pyrrolo[2,3-d] pyrimidin-6-one]
Emax [1]: 91%
EC50 [1]: 157 nM
Maximum peak decrease of systolic blood pressure (SBP), Category ([2]; single oral dose 1.0 mpk P.O.): B (Category B=SBP in SHRs 20-40 mmHg)

CC1(c2ccc(F)cc2)C(=O)Nc2nc(-c3cn4ccnc4c(NCC(F)(F)C(F)(F)F)n3)nc(N)c21 (stereo not drawn) [Example 34A, 4-amino-5-(4-fluorophenyl)-5-methyl-2-{8-[(2,2,3,3,3-pentafluoropropyl)amino]imidazo [1,2-a]pyrazin-6-yl}-5,7-dihydro-6H-pyrrolo[2,3-d] pyrimidin-6-one]
Emax [1]: 117%
EC50 [1]: 164 nM
Maximum peak decrease of systolic blood pressure (SBP), Category ([2]; single oral dose 3.0 mpk P.O.): A (Category A=SBP in SHRs <20 mmHg)
